Laboratory results as given in patent US20210330611A1, “THERAPY FOR NEUROLOGICAL DISEASES/DISORDERS” (priority 2020, published 2021).
Counter-ions that a name gives are not always drawn. Like-named read-outs stand apart in the source and are kept apart here.

Assays:
[1] = test system: fibrin-induced microglia activation; assay: Image-based assay of fibrin-induced microglia activation (HTS and dose response); format: cell-based, rat; conditions: for inhibition at 10 µM: Rattus norvegicus, Microglia, read-out: Fibrin % inhibition
[2] = test system: LPS-induced microglia activation; assay: Image-based assay of LPS-induced microglia activation (HTS and dose response); format: cell-based, rat; conditions: for inhibition at 10 µM: Rattus norvegicus, Microglia, read-out: LPS % inhibition
[3] = test system: fibrin- and LPS-induced microglia activation; assay: cells; format: cell-based, rat
primary rat microglia [4] = assay: Cell toxicity (dead cells, size <150 μm2) in LPS assay
primary rat microglia [5] = assay: Cell toxicity (dead cells, size <150 μm2) in coated fibrin (cFib) assay;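 note: share of dead cells sized under 150 µm2 at 10 µM in fibrin-stimulated microglia HTS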
[6] = primary microglia HTS, fibrin stimulation, increased cell size (>800 μm^2) as marker of activation
[7] = 48 h, primary microglia HTS, LPS stimulation, increased cell size (>800 μm^2) as marker of activation
[8] = quadrant by fibrin and LPS inhibition in HTS of 1907 compounds
[9] = primary microglia HTS, LPS stimulation, decreased size (<150 μm^2) as marker of toxicity
[10] = primary microglia HTS, fibrin stimulation, decreased size (<150 μm^2) as marker of toxicity
[11] = primary microglia HTS, fibrin stimulation, activation = cell size >800 μm2
[12] = 48 h, primary microglia HTS, LPS stimulation, activation = cell size >800 μm2
[13] = primary microglia HTS, LPS stimulation, toxicity = cell size <150 μm2
[14] = primary microglia HTS, fibrin stimulation, toxicity = cell size <150 μm2
[15] = primary HTS, 10 μM, fibrin-stimulated primary microglia
[16] = primary HTS, 10 μM, LPS-stimulated primary microglia
[17] = primary HTS, 10 μM, LPS assay, dead cells size <150 μm2
[18] = primary HTS, 10 μM, fibrin assay, dead cells size <150 μm2
[19] = primary microglia HTS, LPS stimulation, increased cell size (>800 μm^2) as marker of activation

| Structure (SMILES) | inhibition at 10 µM [1, 6] [%] | inhibition at 10 µM [2, 7] [%] | Quadrant (FIG. 5b) [3, 8] | LPS % cell toxicity (primary rat microglia [4]; [9]) [%] | Fibrin % cell toxicity (primary rat microglia [5]; [10]) [%] | inhibition at 10 µM [1, 15] [%] | inhibition at 10 µM [2, 16] [%] | Quadrant (FIG. 5b) ([3]; primary HTS, 10 μM) | LPS % cell toxicity (primary rat microglia [4]; [17]) [%] | Fibrin % cell toxicity (primary rat microglia [5]; [18]) [%] | other results |
| --- | --- | --- | --- | --- | --- | --- | --- | --- | --- | --- | --- |
| Cc1cccc(CN2CCN(C(c3ccccc3)c3ccc(Cl)cc3)CC2)c1 (centres unmarked) [Meclizine] | -33 | 12 | Q4 | 0 | 0 |  |  |  |  |  |  |
| COc1ccc(C(CN(C)C)C2(O)CCCCC2)cc1 (centres unmarked) [Venlafaxine, Venlafaxine Hydrochloride] |  |  |  |  |  |  |  |  |  |  | Fibrin % inhibition ([1]; primary microglia HTS, 10 μM, fibrin-stimulated, cell size >800 μm^2 as marker of activation): 3%; LPS % inhibition ([2]; primary microglia HTS, 10 μM, LPS-stimulated, cell size >800 μm^2 as marker of activation): 20%; Quadrant (FIG. 5b) ([3]; HTS of 1907 compounds, quadrant by fibrin and LPS inhibition): Q4; LPS % cell toxicity (primary rat microglia [4]; primary microglia HTS, 10 μM, LPS assay, cell size <150 μm^2 as marker of toxicity): 0%; Fibrin % cell toxicity (primary rat microglia [5]; primary microglia HTS, 10 μM, fibrin assay, cell size <150 μm^2 as marker of toxicity): 1% |
| O=C(c1cccnc1)N1CCOCC1 [Nicopholine] | 26 | 21 | Q4 | 0 | 0 |  |  |  |  |  |  |
| CO[C@@]1(NC(=O)C(C(=O)O)c2ccc(O)cc2)C(=O)N2C(C(=O)O)=C(CSc3nnnn3C)CO[C@@H]21 (some centres unmarked) [Latamoxef] |  |  | Q4 |  |  |  |  |  |  |  | inhibition at 10 µM [1, 11]: -18%; inhibition at 10 µM [2, 12]: 22%; LPS % cell toxicity (primary rat microglia [4]; [13]): 0%; Fibrin % cell toxicity (primary rat microglia [5]; [14]): 1% |
| COc1ccc2cc([C@H](C)CO)ccc2c1 [Naproxol] | -10 | 16 | Q4 | 0 | 0 |  |  |  |  |  |  |
| CCCCCCCC/C=C\CCCCCCCC(=O)O [Oleic Acid] | 23 | 25 | Q4 | 1 | 1 |  |  |  |  |  |  |
| COC(=O)C1=C(C)NC(C)=C(C(=O)OC(C)C)C1c1cccc2nonc12 (centres unmarked) [Isradipine] |  |  | Q4 |  |  |  |  |  |  |  | inhibition at 10 µM [1, 11]: 9%; inhibition at 10 µM [2, 12]: 2%; LPS % cell toxicity (primary rat microglia [4]; [13]): 0%; Fibrin % cell toxicity (primary rat microglia [5]; [14]): 1% |
| CCN(CC)CCNC(C(=O)OCCC(C)C)c1ccccc1 (centres unmarked) [Camylofine Dihydrochloride] |  |  |  |  |  | -27 | 15 | Q4 | 1 | 1 |  |
| [O-][n+]1cccc(CO)c1 [Mepiroxol] |  |  | Q4 | 0 | 1 |  |  |  |  |  | Fibrin % inhibition [1, 6]: −6%; LPS % inhibition [2, 19]: 11% |
| Cc1cc(C(C#N)c2ccc(Cl)cc2)c(Cl)cc1NC(=O)c1cc(I)cc(I)c1O (centres unmarked) [Closantel] |  |  |  |  |  | -9 | 5 | Q4 | 0 | 0 |  |
| CO/N=C(\C(=O)N[C@@H]1C(=O)N2C(C(=O)OC(C)OC(C)=O)=C(COC(N)=O)CS[C@H]12)c1ccco1 (some centres unmarked) [Cefuroxime Axetil] |  |  |  |  |  | 17 | 13 | Q4 | 0 | 1 |  |
| Oc1ccc(Cl)c2c1CCC2 [Chlorindanol] |  |  |  |  |  | 23 | 15 | Q4 | 0 | 1 |  |
| C[n+]1cc2c3c(ccc2c2ccc4cc5c(cc4c21)OCO5)OCO3 |  |  | Q1 | 55 | 0 |  |  |  |  |  | Fibrin % inhibition [1, 6]: 24%; LPS % inhibition [2, 19]: 101% |
